Measurements reported in ChEMBL document CHEMBL5303766, “Data for DCP probe FHT-2344” (2022).

Legend:
[1] = target: D(3) dopamine receptor (Homo sapiens) (UniProt P35462); settings: Compound concentration 10.0 uM
[2] = target: Dual specificity protein kinase CLK1 (Homo sapiens) (UniProt P49759); assay: CLK1 SGC Tm panel (DSF); settings: for ΔTm: Compound concentration 10.0 uM
[3] = target: Maternal embryonic leucine zipper kinase (Homo sapiens) (UniProt Q14680); assay: MELK SGC Tm panel (DSF); settings: for ΔTm: Compound concentration 10.0 uM
Chain of Maternal embryonic leucine zipper kinase (Homo sapiens) (Q14680 whole entry, looked up): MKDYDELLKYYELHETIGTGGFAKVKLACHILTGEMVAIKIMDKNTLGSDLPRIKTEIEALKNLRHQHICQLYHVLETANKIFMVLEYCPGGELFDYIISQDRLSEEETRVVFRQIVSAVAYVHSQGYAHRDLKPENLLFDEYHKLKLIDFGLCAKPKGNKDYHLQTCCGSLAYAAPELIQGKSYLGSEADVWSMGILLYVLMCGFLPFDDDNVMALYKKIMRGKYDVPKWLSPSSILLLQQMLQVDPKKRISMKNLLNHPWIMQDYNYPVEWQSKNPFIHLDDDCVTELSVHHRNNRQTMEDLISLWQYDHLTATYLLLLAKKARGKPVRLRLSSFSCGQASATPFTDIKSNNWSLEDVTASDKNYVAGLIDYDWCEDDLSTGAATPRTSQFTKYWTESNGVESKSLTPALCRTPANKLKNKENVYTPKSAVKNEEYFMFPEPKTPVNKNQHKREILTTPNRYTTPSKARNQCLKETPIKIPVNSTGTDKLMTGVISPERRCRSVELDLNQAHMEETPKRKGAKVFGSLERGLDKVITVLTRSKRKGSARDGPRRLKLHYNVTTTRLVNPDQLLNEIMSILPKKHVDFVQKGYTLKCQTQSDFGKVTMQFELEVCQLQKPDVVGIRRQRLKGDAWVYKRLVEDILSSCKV

[4] = target: Sodium-dependent noradrenaline transporter (Homo sapiens, UniProt P23975); settings: Compound concentration 10.0 uM
[5] = target: Vascular endothelial growth factor receptor 1 (Homo sapiens) (UniProt P17948); assay: FLT1 SGC Tm panel (DSF); settings: for ΔTm: Compound concentration 10.0 uM
Chain of Vascular endothelial growth factor receptor 1 (Homo sapiens) (P17948 whole entry): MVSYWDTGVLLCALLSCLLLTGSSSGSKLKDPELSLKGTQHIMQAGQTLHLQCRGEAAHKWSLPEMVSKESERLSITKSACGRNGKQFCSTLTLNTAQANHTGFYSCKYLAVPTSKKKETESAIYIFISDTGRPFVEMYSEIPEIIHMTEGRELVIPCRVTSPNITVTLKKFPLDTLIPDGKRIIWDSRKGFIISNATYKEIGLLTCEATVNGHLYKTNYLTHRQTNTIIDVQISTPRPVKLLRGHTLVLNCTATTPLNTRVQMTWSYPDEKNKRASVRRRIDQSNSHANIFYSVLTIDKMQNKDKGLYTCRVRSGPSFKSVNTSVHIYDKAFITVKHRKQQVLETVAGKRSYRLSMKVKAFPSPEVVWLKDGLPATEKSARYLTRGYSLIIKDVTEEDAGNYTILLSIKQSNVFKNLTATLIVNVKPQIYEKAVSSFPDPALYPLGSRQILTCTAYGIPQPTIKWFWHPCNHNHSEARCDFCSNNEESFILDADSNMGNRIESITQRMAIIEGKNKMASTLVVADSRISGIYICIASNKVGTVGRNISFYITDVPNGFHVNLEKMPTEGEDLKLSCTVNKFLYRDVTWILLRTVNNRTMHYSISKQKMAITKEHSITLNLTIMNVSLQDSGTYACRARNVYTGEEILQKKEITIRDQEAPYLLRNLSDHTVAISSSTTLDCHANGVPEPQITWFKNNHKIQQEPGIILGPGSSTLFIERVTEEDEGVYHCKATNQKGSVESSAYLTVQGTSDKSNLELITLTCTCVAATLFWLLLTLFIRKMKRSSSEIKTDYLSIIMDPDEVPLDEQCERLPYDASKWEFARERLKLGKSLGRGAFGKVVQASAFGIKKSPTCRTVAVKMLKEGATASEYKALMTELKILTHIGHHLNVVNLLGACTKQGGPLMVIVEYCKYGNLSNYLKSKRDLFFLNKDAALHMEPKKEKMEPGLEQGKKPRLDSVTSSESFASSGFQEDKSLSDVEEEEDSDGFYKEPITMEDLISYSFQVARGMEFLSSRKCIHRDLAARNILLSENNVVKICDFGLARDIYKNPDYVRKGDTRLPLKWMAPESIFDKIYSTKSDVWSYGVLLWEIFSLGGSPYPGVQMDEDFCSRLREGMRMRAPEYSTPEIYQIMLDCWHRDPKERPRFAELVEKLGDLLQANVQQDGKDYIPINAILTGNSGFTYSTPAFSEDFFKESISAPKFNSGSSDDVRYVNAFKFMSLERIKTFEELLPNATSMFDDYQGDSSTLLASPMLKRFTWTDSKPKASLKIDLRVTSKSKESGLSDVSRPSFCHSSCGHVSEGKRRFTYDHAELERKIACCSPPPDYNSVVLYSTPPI

[6] = target: 5-hydroxytryptamine receptor 2B (Homo sapiens, UniProt P41595); settings: Compound concentration 10.0 uM
[7] = target: Calcium/calmodulin-dependent protein kinase type 1D (Homo sapiens) (UniProt Q8IU85); assay: CAMK1D SGC Tm panel (DSF); settings: for ΔTm: Compound concentration 10.0 uM
Chain of Calcium/calmodulin-dependent protein kinase type 1D (Homo sapiens) (Q8IU85 whole entry, looked up): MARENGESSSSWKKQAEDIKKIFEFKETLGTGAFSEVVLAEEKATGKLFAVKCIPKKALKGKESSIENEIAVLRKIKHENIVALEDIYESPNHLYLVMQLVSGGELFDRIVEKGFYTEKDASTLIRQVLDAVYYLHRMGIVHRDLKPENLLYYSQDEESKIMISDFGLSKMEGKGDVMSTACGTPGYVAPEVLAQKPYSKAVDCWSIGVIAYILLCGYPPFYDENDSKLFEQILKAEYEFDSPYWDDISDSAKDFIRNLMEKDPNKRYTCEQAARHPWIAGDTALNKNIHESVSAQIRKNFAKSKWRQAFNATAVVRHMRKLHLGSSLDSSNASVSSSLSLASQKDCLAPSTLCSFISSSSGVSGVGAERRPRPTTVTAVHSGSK

[8] = target: T1, Tyrosine-protein kinase Mer (Homo sapiens) (UniProt Q12866); assay: MERTK SGC Tm panel (DSF); settings: for ΔTm: Compound concentration 10.0 uM
T1 sequence (whole entry): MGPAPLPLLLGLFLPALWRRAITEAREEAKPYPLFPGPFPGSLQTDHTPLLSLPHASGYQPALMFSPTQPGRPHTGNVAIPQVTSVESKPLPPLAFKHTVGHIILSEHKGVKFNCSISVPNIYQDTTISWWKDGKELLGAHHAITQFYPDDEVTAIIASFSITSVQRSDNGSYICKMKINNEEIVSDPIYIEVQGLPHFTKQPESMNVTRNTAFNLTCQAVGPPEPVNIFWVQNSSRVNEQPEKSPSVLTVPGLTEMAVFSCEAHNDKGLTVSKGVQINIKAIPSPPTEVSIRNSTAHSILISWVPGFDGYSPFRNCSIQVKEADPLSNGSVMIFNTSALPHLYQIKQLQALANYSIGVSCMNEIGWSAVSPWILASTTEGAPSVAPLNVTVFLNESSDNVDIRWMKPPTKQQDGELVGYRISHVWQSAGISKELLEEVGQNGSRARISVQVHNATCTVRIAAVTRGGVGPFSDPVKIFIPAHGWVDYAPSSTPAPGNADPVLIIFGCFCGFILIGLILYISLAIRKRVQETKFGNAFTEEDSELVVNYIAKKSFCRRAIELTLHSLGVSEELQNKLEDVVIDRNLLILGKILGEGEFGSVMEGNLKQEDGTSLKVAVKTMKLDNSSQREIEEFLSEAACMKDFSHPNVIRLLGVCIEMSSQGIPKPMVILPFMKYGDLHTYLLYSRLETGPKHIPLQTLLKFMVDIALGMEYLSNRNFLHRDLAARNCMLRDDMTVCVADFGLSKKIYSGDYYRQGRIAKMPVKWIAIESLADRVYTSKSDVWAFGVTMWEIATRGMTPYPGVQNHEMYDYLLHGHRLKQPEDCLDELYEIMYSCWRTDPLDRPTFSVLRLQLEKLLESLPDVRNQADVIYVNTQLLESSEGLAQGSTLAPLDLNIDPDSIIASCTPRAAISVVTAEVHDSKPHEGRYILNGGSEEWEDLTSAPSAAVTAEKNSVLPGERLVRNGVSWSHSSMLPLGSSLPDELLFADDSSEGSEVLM

[9] = target: 5-hydroxytryptamine receptor 2A (Homo sapiens) (UniProt P28223); settings: Compound concentration 10.0 uM
[10] = target: Serine/threonine-protein kinase 26 (Homo sapiens) (UniProt Q9P289); assay: MST4 SGC Tm panel (DSF); settings: for ΔTm: Compound concentration 10.0 uM
Chain of Serine/threonine-protein kinase 26 (Homo sapiens) (Q9P289 2-416 limits assumed): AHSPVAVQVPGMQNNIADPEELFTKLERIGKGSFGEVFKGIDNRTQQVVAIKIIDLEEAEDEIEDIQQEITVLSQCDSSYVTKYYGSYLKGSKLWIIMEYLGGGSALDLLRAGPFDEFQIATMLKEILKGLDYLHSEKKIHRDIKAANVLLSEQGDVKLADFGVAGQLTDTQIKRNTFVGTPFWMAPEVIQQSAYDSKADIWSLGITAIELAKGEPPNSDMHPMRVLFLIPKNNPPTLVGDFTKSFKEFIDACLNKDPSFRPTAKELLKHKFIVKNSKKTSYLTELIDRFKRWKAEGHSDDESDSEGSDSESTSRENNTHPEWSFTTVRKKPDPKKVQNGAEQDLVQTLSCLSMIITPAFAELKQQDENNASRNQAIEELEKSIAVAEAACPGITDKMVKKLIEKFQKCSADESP

[11] = target: Serine/threonine-protein kinase B-raf (Homo sapiens) (UniProt P15056); assay: BRAF SGC Tm panel (DSF); settings: for ΔTm: Compound concentration 10.0 uM
Chain of Serine/threonine-protein kinase B-raf (Homo sapiens) (P15056 whole entry): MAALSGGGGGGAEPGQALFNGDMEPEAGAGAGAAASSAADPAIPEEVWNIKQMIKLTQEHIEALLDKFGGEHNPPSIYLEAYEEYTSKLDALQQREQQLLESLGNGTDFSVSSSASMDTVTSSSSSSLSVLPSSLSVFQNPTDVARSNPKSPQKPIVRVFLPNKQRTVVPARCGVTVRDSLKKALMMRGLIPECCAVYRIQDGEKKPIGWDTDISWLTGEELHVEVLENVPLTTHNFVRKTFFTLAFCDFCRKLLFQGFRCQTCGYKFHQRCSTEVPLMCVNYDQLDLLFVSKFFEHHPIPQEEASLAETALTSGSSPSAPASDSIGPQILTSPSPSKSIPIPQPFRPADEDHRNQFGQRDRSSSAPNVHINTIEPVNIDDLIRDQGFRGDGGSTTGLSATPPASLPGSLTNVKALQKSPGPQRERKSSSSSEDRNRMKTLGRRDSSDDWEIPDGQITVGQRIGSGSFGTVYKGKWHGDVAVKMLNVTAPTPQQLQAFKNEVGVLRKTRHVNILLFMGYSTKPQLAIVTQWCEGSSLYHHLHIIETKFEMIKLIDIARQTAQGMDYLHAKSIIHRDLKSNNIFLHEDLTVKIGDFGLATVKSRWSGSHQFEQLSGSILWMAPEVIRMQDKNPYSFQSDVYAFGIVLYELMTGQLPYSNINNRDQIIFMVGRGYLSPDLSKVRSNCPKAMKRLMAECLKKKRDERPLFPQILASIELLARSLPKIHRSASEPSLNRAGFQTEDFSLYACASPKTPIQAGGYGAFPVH

[12] = target: Alpha-1A adrenergic receptor (Homo sapiens) (UniProt P35348); settings: Compound concentration 10.0 uM
[13] = target: Casein kinase I isoform epsilon (Homo sapiens) (UniProt P49674); assay: CSNK1E SGC Tm panel (DSF); settings: for ΔTm: Compound concentration 10.0 uM
Chain of Casein kinase I isoform epsilon (Homo sapiens) (P49674 whole entry, looked up, canonical isoform): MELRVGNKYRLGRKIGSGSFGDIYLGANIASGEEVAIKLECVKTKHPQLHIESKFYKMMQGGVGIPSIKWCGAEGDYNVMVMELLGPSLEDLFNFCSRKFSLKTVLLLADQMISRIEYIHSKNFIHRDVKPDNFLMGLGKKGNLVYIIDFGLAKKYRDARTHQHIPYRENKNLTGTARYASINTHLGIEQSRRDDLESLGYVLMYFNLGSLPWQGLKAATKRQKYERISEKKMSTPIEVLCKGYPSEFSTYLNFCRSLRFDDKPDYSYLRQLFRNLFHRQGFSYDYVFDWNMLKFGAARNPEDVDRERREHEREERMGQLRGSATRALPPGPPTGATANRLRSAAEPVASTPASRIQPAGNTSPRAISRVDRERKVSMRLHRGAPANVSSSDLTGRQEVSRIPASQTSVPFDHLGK

[14] = target: Calcium/calmodulin-dependent protein kinase type II subunit delta (Homo sapiens) (UniProt Q13557); assay: CAMK2D SGC Tm panel (DSF); settings: for ΔTm: Compound concentration 10.0 uM
Chain of Calcium/calmodulin-dependent protein kinase type II subunit delta (Homo sapiens) (Q13557 whole entry): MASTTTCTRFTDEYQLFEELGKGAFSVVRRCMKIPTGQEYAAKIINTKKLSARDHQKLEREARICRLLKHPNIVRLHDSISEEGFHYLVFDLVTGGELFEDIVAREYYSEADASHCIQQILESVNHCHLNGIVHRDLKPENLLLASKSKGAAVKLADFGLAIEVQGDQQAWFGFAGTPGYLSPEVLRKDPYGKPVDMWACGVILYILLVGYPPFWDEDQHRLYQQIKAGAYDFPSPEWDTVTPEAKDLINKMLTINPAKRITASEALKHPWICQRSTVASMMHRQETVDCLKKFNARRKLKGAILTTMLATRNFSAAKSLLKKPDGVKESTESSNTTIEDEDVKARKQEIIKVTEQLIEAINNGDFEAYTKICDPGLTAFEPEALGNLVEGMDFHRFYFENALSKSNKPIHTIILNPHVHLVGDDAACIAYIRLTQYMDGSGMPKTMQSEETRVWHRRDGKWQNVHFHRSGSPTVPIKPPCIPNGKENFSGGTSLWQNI

[15] = target: Calcium/calmodulin-dependent protein kinase kinase 2 (Homo sapiens) (UniProt Q96RR4); assay: CAMKK2 SGC Tm panel (DSF); settings: for ΔTm: Compound concentration 10.0 uM
[16] = target: T2, Dual specificity mitogen-activated protein kinase kinase 7 (Homo sapiens) (UniProt O14733); assay: MAP2K7 SGC Tm panel (DSF); settings: for ΔTm: Compound concentration 10.0 uM
T2 sequence (whole entry): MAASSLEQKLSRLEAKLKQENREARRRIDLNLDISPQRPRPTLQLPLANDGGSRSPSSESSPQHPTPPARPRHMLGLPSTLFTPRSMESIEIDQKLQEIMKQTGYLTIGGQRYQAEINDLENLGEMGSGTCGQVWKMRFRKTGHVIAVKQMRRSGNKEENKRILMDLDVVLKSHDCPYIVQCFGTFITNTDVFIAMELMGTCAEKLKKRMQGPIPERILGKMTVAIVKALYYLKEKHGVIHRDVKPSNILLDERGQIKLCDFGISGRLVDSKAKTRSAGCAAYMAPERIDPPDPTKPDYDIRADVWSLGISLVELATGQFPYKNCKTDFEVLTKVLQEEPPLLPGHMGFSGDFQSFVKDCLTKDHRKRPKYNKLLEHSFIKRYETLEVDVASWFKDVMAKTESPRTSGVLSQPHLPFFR

[17] = target: Histamine H2 receptor (Homo sapiens) (UniProt P25021); settings: Compound concentration 10.0 uM

Chain of Dual specificity protein kinase CLK1 (Homo sapiens) (P49759 whole entry, looked up): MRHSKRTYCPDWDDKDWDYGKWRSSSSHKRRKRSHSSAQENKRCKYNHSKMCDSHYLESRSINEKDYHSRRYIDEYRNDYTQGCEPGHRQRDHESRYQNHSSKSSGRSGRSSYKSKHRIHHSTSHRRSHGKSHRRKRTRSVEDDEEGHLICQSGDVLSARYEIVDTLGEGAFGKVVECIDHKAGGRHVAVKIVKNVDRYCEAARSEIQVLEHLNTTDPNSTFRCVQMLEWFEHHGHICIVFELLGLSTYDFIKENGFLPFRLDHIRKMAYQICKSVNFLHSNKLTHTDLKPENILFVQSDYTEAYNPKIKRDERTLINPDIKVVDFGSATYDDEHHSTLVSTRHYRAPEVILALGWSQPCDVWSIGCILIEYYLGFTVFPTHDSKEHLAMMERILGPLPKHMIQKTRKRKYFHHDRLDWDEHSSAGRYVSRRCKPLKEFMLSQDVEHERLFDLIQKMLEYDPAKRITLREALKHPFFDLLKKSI

Compound | inhibition [1] [%] | delta Tm Staurosporine positive control [2] | ΔTm [2] | delta Tm Staurosporine positive control [3] | ΔTm [3] | inhibition [4] [%] | delta Tm Staurosporine positive control [5] | ΔTm [5] | inhibition [6] [%] | delta Tm Staurosporine positive control [7] | ΔTm [7] | delta Tm Staurosporine positive control [8] | ΔTm [8] | inhibition [9] [%] | delta Tm Staurosporine positive control [10] | ΔTm [10] | delta Tm Staurosporine positive control [11] | ΔTm [11] | inhibition [12] [%] | delta Tm Staurosporine positive control [13] | further results
COC[C@H](NC(=O)c1ccn(S(C)(=O)=O)c1)C(=O)Nc1nc(-c2cccc(-c3ccn(C)n3)c2)cs1 | 13 | 10.9 | 0.489 | 14 | -0.053 | 45.5 | 11.1 | -0.0497 | 48.2 | 10.8 | 0.174 | 6.35 | 0.54 | 4.18 | 6.93 | -1.14 | 0.63 | -0.0136 | 12.3 | 3.74 | ΔTm [13]: 0.508; delta Tm Staurosporine positive control [14]: 16; ΔTm [14]: 0.157; delta Tm Staurosporine positive control [15]: 24.4; ΔTm [15]: 0.325; delta Tm Staurosporine positive control [16]: 6.68; ΔTm [16]: 0.168; inhibition [17]: 22.6%
C[C@H](NC(=O)c1cn(C2(C#N)CC2)cn1)C(=O)Nc1nc(-c2cccc(-c3ccn(C)n3)c2)cs1 | 28.2 | 10.9 | 0.522 | 14 | 0.116 | 69.8 | 11.1 | -0.217 | 86.8 | 10.8 | 0.455 | 6.35 | 0.284 | -5.53 | 6.93 | -1.33 | 0.63 | -0.0339 | 15.2 | 3.74 | ΔTm [13]: 0.73; delta Tm Staurosporine positive control [14]: 16; ΔTm [14]: 0.121; delta Tm Staurosporine positive control [15]: 24.4; ΔTm [15]: 0.609; delta Tm Staurosporine positive control [16]: 6.68; ΔTm [16]: 0.97; inhibition [17]: 4.24%
